Source: patent US11083717B2, “Compositions and methods for drug sensitization of parasites” (The Texas A&M University System, priority 2015, dated 2021)
Where two headings read alike, the source gives them in different places.

Experiments:
S. cerevisiae = test: in vitro; conditions: Saccharomyces cerevisiae
Text: (§1) These tests included an IL-12 mouse model test to determine compound efficacy, verification of MIC50 for CP, cytotoxicity test for fibroblasts and yeast to determine potential toxic effects, a Human ether-a-go-go-related gene (hERG) test to determine potential cardiotoxicity, an AMES test tp determine mutagenic potential, a Safety Screen 44 test to determine common negative off-target drug interastion (Eurofins Cerep, SA, France), a cytochrome P450 (CYP) test to determine potential liver toxicity, a maximum tolerated dose, test, a Pharmacokinetics (PK) test to determine fate of the substance administered to a living organism tests for plasma stability in human and mouse, to measure the degradation of compound in plasma MClint and HClint test to determine in vitro intrinsic clearance for Mouse and Human, and kinetic solubility and plasma protein binding tests in mouse and human.

human fibroblast = test: in vitro
Text: as §1

| Structure (SMILES) | concentrations at which not toxic, S. cerevisiae cytotoxicity testing (S. cerevisiae) | concentrations at which not toxic, human fibroblast cytotoxicity testing (human fibroblast; human) | concentrations at which not toxic, human fibroblast cytotoxicity testing (human fibroblast) |
| --- | --- | --- | --- |
| CONC(=O)C(C)c1ccc(Oc2nc3ccc(Cl)cc3s2)cc1 (stereo not drawn) [NZ-313, 2-{4-[(6-chloro-1,3-benzothiazol-2-yl)oxy]phenyl}-N-methoxypropanamide] | ≥ 100 µM | ≥ 100 µM |  |
| COC(=O)C(C)(C)Oc1ccc(Oc2cnc3cc(Cl)ccc3n2)cc1 [NZ-314, methyl 2-{4-[(6-chloroquinoxalin-2-yl)oxy]phenoxy}-2-methylpropanoate] | ≥ 100 µM | ≥ 100 µM |  |
| CC(C)(Oc1ccc(Oc2cnc3cc(Cl)ccc3n2)cc1)C(=O)O [NZ-315, 2-{4-[(6-chloroquinoxalin-2-yl)oxy]phenoxy}-2-methylpropanoic acid] | ≥ 100 µM |  | ≥ 100 µM |
| CONC(=O)C(C)(C)Oc1ccc(Oc2cnc3cc(Cl)ccc3n2)cc1 [NZ-316, 2-{4-[(6-chloroquinoxalin-2-yl)oxy]phenoxy}-N-methoxy-2-methylpropanamide] | ≥ 100 µM | ≥ 100 µM |  |
| COC(=O)C(C)(C)Oc1ccc(Oc2nc3ccc(Cl)cc3s2)cc1 [NZ-317, methyl 2-{4-[(6-chloro-1,3-benzothiazol-2-yl)oxy]phenoxy}-2-methylpropanoate] | ≥ 100 µM | ≥ 100 µM |  |
| CC(C)(Oc1ccc(Oc2nc3ccc(Cl)cc3s2)cc1)C(=O)O [NZ-318, 2-{4-[(6-chloro-1,3-benzothiazol-2-yl)oxy]phenoxy}-2-methylpropanoic acid] | ≥ 100 µM |  | ≥ 100 µM |
| CONC(=O)C(C)(C)Oc1ccc(Oc2nc3ccc(Cl)cc3s2)cc1 [NZ-319, 2-{4-[(6-chloro-1,3-benzothiazol-2-yl)oxy]phenoxy}-N-methoxy-2-methylpropanamide] | ≥ 100 µM | ≥ 100 µM |  |
| CONC(=O)c1cc2ccc(Oc3ccccc3)cc2oc1=O [NZ-320, N-methoxy-2-oxo-7-phenoxy-2H-chromene-3-carboxamide] | ≥ 100 µM | ≥ 100 µM |  |
| CC(C)(C)OC(=O)Nc1ccc(Oc2cnc3cc(Cl)ccc3n2)cc1 [NZ-321, tert-butyl N-{4-[(6-chloroquinoxalin-2-yl)oxy]phenyl}carbamate] | ≥ 100 µM | ≥ 100 µM |  |
| O=C(COc1ccc(Oc2cnc3cc(Cl)ccc3n2)cc1)NOCC1CC1 [NZ-323, 2-{4-[(6-chloroquinoxalin-2-yl)oxy]phenoxy}-N-(cyclopropylmethoxy)acetamide] | ≥ 100 µM |  | ≥ 100 µM |
| CC(C)ONC(=O)COc1ccc(Oc2cnc3cc(Cl)ccc3n2)cc1 [NZ-326, 2-{4-[(6-chloroquinoxalin-2-yl)oxy]phenoxy}-N-(propan-2-yloxy)acetamide] | ≥ 100 µM |  | ≥ 100 µM |
| COC(=O)C(C)c1ccc(Oc2nc3ccc(F)cc3s2)cc1 (stereo not drawn) [NZ-328, methyl 2-{4-[(6-fluoro-1,3-benzothiazol-2-yl)oxy]phenyl}propanoate] | ≥ 100 µM | ≥ 100 µM |  |
| CC(C(=O)O)c1ccc(Oc2nc3ccc(F)cc3s2)cc1 (stereo not drawn) [NZ-329, 2-{4-[(6-fluoro-1,3-benzothiazol-2-yl)oxy]phenyl}propanoic acid] | ≥ 100 µM | ≥ 100 µM |  |
| CONC(=O)C(C)c1ccc(Oc2nc3ccc(F)cc3s2)cc1 (stereo not drawn) [NZ-330, 2-{4-[(6-fluoro-1,3-benzothiazol-2-yl)oxy]phenyl}-N-methoxypropanamide] | ≥ 100 µM | ≥ 100 µM |  |
| COc1ccc2nc(Oc3ccc(C(C)C(=O)O)cc3)sc2c1 (stereo not drawn) [NZ-334] | ≥ 100 µM | ≥ 100 µM |  |
| CONC(=O)C(C)c1ccc(Oc2nc3ccc(OC)cc3s2)cc1 (stereo not drawn) [NZ-335, N-methoxy-2-{4-[(6-methoxy-1,3-benzothiazol-2-yl)oxy]phenyl}propanamide] | ≥ 100 µM | ≥ 100 µM |  |
| COC(=O)C(O)c1ccc(Oc2nc3ccc(Cl)cc3s2)cc1 (stereo not drawn) [NZ-336, methyl 2-{4-[(6-chloro-1,3-benzothiazol-2-yl)oxy]phenyl}-2-hydroxyacetate] | 50 to 100 µM | 50 to 100 µM |  |

| Structure (SMILES) | concentrations at which not toxic, S. cerevisiae cytotoxicity testing (S. cerevisiae) | concentrations at which not toxic, human fibroblast cytotoxicity testing (human fibroblast; human) | concentrations at which not toxic, human fibroblast cytotoxicity testing (human fibroblast) |
| --- | --- | --- | --- |
| O=C(O)C(O)c1ccc(Oc2nc3ccc(Cl)cc3s2)cc1 (stereo not drawn) [NZ-337, 2-{4-[(6-chloro-1,3-benzothiazol-2-yl)oxy]phenyl}-2-hydroxyacetic acid] | ≥ 100 µM | ≥ 100 µM |  |
| COc1ccc2nc(Oc3ccc(NC(=O)NC(C)C)cc3)sc2c1 [NZ-361, 1-{4-[(6-methoxy-1,3-benzathiazol-2-yl)oxy]phenyl}-3-(propan-2-yl)urea] | ≥ 100 µM | ≥ 100 µM |  |
| CC(C)NC(=O)Nc1ccc(Oc2nc3ccc(O)cc3s2)cc1 [NZ-362, 1-{4-[(6-hydroxy-1,3-benzothiazol-2-yl)oxy]phenyl}-3-(propan-2-yl)urea] | ≥ 100 µM | ≥ 100 µM |  |
| CC(C)NC(=O)Nc1ccc(Oc2nc3cc(F)ccc3s2)cc1 [NZ-373, 1-{4-[(5-fluoro-1,3-benzothiazol-2-yl)oxy]phenyl}-3-(propan-2-yl)urea] | ≥ 100 µM |  | ≥ 100 µM |
| CC(C)NC(=O)Nc1ccc(Oc2nc3c(F)cccc3s2)cc1 [NZ-374, 1-{4-[(4-fluoro-1,3-benzothiazol-2-yl)oxy]phenyl}-3-(propan-2-yl)urea] | ≥ 100 µM | ≥ 100 µM |  |
| CC(C)NC(=O)Nc1ccc(Oc2nc3cc(Cl)ccc3s2)cc1 [NZ-376, 1-{4-[(5-chloro-1,3-benzothiazol-2-yl)oxy]phenyl}-3-(propan-2-yl)urea] | ≥ 100 µM |  | ≥ 100 µM |
| CC(C)NC(=O)Nc1ccc(Oc2nc3ccc(C#N)cc3s2)cc1 [NZ-377, 1-{4-[(6-cyano-1,3-benzothiazol-2-yl)oxy]phenyl}-3-(propan-2-yl)urea] | ≥ 100 µM |  | ≥ 100 µM |
| CCOC(=O)c1ccc2nc(Oc3ccc(NC(=O)NC(C)C)cc3)sc2c1 [NZ-378, ethyl 2-(4-{[(propan-2-yl)carbamoyl]amino}phenoxy)-1,3-benzothiazole-6-carboxylate] | ≥ 100 µM | ≥ 100 µM |  |
| CC(C)NC(=O)Nc1ccc(Oc2nc3ccc(C(F)(F)F)cc3s2)cc1 [NZ-379, 3-(propan-2-yl)-1-(4-{[6-(trifluoromethyl)-1,3-benzothiazol-2-yl]oxy}phenyl)urea] | ≥ 100 µM | ≥ 100 µM |  |
| CC(C)NC(=O)Nc1ccc(Oc2nc3ccc(S(C)(=O)=O)cc3s2)cc1 [NZ-380, 1-{4-[(6-methanesulfonyl-1,3-benzothiazol-2-yl)oxy]phenyl}-3-(propan-2-yl)urea] | ≥ 100 µM | ≥ 100 µM |  |
| CC(C)NC(=O)Nc1ccc(Oc2nc3ccc(CO)cc3s2)cc1 [NZ-381, 1-(4-{[6-(hydroxymethyl)-1,3-benzothiazol-2-yl]oxy}phenyl)-3-(propan-2-yl)urea] | ≥ 100 µM | ≥ 100 µM |  |
| CC(C)NC(=O)Nc1ccc(Oc2nc3cc(F)c(F)cc3s2)cc1 [NZ-382, 1-{4-[(5,6-difluoro-1,3-benzothiazol-2-yl)oxy]phenyl}-3-(propan-2-yl)urea] | 50 to 100 µM | ≥ 100 µM |  |
| CNC(=O)Cc1ccc(Oc2nc3ccc(Cl)cc3s2)cc1 [NZ-383] | ≥ 100 µM |  | ≥ 100 µM |
| CNC(=O)Cc1ccc(Oc2nc3ccc(F)cc3s2)cc1 [NZ-385, 2-{4-[(6-fluoro-1,3-benzothiazol-2-yl)oxy]phenyl}-N-methylacetamide] | ≥ 100 µM |  | ≥ 100 µM |
| CC(C)NC(=O)N(C)c1ccc(Oc2nc3ccc(Cl)cc3s2)cc1 [NZ-388, 1-{4-[(6-chloro-1,3-benzothiazol-2-yl)oxy]phenyl}-1-methyl-3-(propan-2-yl)urea] | ≥ 100 µM |  | ≥ 100 µM |
| CNC(=O)Cc1ccc(O)cc1Oc1nc2ccc(Cl)cc2s1 [NZ-390, 2-{2-[(6-chloro-1,3-benzothiazol-2-yl)oxy]-4-hydroxyphenyl}-N-methylacetamide] | ≥ 100 µM | ≥ 100 µM |  |
